Data set [1] in a line: Critical solubility temperature (CST) in n-hexane. The source says: FIG. 1 is a diagram of the critical solubility temperatures (CST) of perfluorocarbon mixtures in n-hexane using perfluorodecalin as a starting point
FIG. 2 is a diagram of the critical solubility temperatures of perfluorocarbon mixtures in n-hexane using F-octylbromide as a starting point.

Data set [2] is described as follows: O2 solubility of fluorocarbons. The class given is physicochemical.
A short description of data set [3]: Vapour pressure of fluorocarbons at 37° C. It counts as physicochemical.
Data set [4] can be described thus: Penetration into skin and residence time/release of labelled encapsulated fluorocarbons, animal experiments. The class given is in vivo.
Text: By means of separate investigations, it was possible to determine the dependence of the penetration rates and the depth of penetration on the particle size of the aggregates experimentally in animal experiments using labelled encapsulated fluorocarbons. […] The choice of fluorocarbons or mixtures thereof according to their lipid solubility (represented by their critical solubility temperature CST in n-hexane) permits, as a further important criterion, the control of the residence time in the tissue. […] With the aid of fluorocarbon mixtures, in this way systems having desired CST values, i.e. lipid and membrane solubilities, with respect to the intended use can be prepared in a controlled manner.
Setting [5] is: critical solubility temperature in n-hexane.

Where two headings read alike, the source gives them in different places.

With `FC(F)(F)C(F)(F)C(F)(F)C(F)(F)C=CC(F)(F)C(F)(F)C(F)(F)C(F)(F)F` [Bis-F(butyl)ethene, bis-F(butyl)ethene], in data set [1] (setting [5]), the CST came to 22.5 °C.
On to `FC1(F)OC(F)(F)C(F)(F)N(C(F)(F)C2(F)C(F)(F)C(F)(F)C(F)(F)C(F)(F)C2(F)F)C1(F)F` [F-cyclohexylmethylmorpholine], for which the O2 solubility in data set [2] is given as 42 ml of O2 /100 ml of Fc. The “Vapour Pressure” value in data set [3] worked out at 4 mm Hg. Further, in data set [1] (setting [5]), the CST came out at 38.5 °C.
The compound `FC(F)(F)C(F)(F)C(F)(F)C(F)(F)C(F)(F)C(F)(F)OC(F)(F)C(F)(F)C(F)(F)C(F)(F)C(F)(F)C(F)(F)F` [F-dihexyl ether] gave a CST in data set [1] (setting [5]) of 59 °C.
In the case of `FC(F)(F)C(F)(F)C(F)(F)C(F)(F)C(F)(F)C(F)(F)F` [F-hexane, perfluorohexane], the “release from the tissue” value in data set [4] (in vivo) was “released correspondingly more rapidly from the tissue”.
Compound `FC(F)(F)C1(F)C(F)(F)C(F)(F)C(F)(F)C(F)(F)C1(F)F` [F-methylcyclohexane, perfluoromethylcyclohexane] came in with a CST in data set [1] (setting [5]) of 8.2 °C.
In data set [1] (setting [5]), `FC(F)(F)C(F)(F)C(F)(F)C(F)(F)N(C(F)(F)C(F)(F)C(F)(F)C(F)(F)F)C(F)(F)C(F)(F)C(F)(F)C(F)(F)F` [F-tributylamine, perfluorotributylamine] yielded a CST of 59 °C. Also, the “residence time in the tissue” value in data set [4] (in words, related to CST / lipid solubility) was “relatively large residence time”.
The compound `FC(F)(F)C(F)(F)C(F)(F)N(C(F)(F)C(F)(F)C(F)(F)F)C(F)(F)C(F)(F)C(F)(F)F` [F-tripropylamine] had a CST in data set [1] of 43 °C.
For the compound `FC(F)(F)C(F)(F)C(F)(F)C(F)(F)C1(F)OC(F)(F)C(F)(F)C1(F)F` (centres unmarked) [Perfluorobutyltetrahydrofuran, perfluorobutyltetrahydrofuran], in data set [2], the O2 solubility is 52 ml of O2 /100 ml of Fc. In data set [3], the “Vapour Pressure” value amounted to 51 mm Hg. Besides, the CST in data set [1] (setting [5]) turned out to be 29 °C. Also, in data set [4] (in words, compared with perfluorotributylamine), the “release from the tissue” value is recorded as “released correspondingly more rapidly from the tissue”.
In data set [1], `FC1(F)C(F)(F)C(F)(F)C2(F)C(F)(F)C(F)(F)C(F)(F)C(F)(F)C2(F)C1(F)F` (centres unmarked) [Perfluorodecalin, perfluorodecalin] gave a CST of 22 °C. Also, in data set [4] (in vivo), the “release from the tissue” value is “released correspondingly more rapidly from the tissue”.
As to `FC(F)(F)C(F)(F)C(F)(F)C(F)(F)C(F)(F)C(F)(F)C(F)(F)C(F)(F)Br` [Perfluorooctyl bromide, perfluorooctyl bromide], in data set [1], the CST is -24.5 °C.
